From paper PMC6138237, “Machine intelligence decrypts β-lapachone as an allosteric 5-lipoxygenase inhibitor” (Chemical Science, 2018)
Like-named read-outs stand apart in the source and are kept apart here.

What was measured:
Pim2 = Pim2 (Homo sapiens, UniProt Q9P1W9); assay: ExpresS Diversity Kinase Profile, Cerep (LANCE): Pim2; assay type: biochemical; conditions: Flag: Interference
SIK = SIK (Homo sapiens, UniProt P57059); assay: ExpresS Diversity Kinase Profile, Cerep (LANCE): SIK; assay type: biochemical; conditions: 150 µM
EP2 = EP2 (Homo sapiens, UniProt P43116); assay: EP2 functional antagonist assay, Cerep (PGE2 100 nM, cAMP)
EphA3 = molecular target: T1, EphA3 (Homo sapiens, UniProt P29320); assay: ExpresS Diversity Kinase Profile, Cerep (LANCE): EphA3; assay type: biochemical
T1 sequence (P29320 21-983): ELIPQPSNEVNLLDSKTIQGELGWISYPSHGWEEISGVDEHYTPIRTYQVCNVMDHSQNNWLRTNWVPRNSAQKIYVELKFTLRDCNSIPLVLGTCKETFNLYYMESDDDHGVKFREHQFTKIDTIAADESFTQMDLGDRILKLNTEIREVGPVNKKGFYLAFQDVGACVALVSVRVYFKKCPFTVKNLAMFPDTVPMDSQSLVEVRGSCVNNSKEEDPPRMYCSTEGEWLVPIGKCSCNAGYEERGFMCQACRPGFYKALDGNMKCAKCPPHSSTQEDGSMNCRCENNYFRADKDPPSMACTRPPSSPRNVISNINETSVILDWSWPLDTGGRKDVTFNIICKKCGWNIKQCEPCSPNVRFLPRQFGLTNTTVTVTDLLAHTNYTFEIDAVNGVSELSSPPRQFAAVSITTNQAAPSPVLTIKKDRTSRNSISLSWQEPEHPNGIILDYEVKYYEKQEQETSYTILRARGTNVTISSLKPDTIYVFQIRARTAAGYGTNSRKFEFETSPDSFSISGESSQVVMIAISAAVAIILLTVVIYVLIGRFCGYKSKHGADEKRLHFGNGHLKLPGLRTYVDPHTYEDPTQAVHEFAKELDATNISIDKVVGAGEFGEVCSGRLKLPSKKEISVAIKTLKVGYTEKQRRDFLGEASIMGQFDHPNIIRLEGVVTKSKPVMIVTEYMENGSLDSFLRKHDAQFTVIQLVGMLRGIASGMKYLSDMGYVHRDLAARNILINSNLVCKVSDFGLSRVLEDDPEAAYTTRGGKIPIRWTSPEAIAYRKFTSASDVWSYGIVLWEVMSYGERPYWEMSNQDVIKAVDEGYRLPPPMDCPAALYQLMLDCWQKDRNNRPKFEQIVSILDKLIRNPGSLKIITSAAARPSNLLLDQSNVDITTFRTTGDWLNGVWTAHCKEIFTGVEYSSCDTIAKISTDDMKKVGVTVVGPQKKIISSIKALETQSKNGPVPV

EP1 = molecular target: T2, EP1 (Homo sapiens, UniProt P34995); assay: EP1 functional antagonist assay, Cerep (PGE2 3 nM, intracellular Ca2+)
T2 sequence (P34995 1-402): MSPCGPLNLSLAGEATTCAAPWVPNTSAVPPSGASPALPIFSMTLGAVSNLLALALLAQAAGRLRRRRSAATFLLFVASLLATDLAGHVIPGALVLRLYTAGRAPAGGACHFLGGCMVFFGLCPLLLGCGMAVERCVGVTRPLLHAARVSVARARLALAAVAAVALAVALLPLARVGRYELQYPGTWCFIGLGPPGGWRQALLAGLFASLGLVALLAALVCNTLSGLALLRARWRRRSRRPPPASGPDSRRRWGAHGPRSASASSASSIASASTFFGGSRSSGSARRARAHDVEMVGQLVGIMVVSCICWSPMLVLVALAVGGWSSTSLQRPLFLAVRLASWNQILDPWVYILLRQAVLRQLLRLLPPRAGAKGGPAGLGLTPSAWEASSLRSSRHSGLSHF

[1] = Dynamic light scattering (colloidal aggregation); assay type: physicochemical; conditions: for Count rate (kcps): 25 °C
15-LO-2 = molecular target: T3, 15-LO-2 (Homo sapiens, UniProt O15296); assay: 15-LO-2 inhibition assay, Cerep (Method A, fluorometry); assay type: biochemical; conditions: 5 µM
T3 sequence (O15296 1-676): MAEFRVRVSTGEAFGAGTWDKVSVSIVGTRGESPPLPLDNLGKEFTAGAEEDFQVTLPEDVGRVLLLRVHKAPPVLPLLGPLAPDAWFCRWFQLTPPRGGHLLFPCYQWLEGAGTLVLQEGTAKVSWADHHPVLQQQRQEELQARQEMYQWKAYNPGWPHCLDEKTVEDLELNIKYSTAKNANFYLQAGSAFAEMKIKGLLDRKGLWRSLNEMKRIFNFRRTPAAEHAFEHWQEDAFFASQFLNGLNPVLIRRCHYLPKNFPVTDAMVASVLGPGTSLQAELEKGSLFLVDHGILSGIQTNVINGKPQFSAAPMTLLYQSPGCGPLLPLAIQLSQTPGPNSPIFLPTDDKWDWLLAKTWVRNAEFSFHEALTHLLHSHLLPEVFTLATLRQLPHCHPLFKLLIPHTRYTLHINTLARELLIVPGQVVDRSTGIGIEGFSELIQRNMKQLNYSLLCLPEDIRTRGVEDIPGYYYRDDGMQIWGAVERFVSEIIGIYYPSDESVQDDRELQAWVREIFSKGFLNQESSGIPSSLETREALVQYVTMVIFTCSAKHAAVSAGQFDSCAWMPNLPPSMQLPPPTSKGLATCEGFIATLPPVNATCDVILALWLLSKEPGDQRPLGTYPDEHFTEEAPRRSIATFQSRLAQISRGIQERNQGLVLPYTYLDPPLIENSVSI

TRPV1 = TRPV1 (Homo sapiens, UniProt Q8NER1); assay: TRPV1 functional agonist assay, Cerep (intracellular Ca2+); assay type: cell-based; conditions: TRPV1 (agonist), 150 µM
[2] = read-out: % Inhibition of control values, 1st measurement
[3] = read-out: % Inhibition of control values, 2nd measurement

Chain of SIK (P57059 whole entry): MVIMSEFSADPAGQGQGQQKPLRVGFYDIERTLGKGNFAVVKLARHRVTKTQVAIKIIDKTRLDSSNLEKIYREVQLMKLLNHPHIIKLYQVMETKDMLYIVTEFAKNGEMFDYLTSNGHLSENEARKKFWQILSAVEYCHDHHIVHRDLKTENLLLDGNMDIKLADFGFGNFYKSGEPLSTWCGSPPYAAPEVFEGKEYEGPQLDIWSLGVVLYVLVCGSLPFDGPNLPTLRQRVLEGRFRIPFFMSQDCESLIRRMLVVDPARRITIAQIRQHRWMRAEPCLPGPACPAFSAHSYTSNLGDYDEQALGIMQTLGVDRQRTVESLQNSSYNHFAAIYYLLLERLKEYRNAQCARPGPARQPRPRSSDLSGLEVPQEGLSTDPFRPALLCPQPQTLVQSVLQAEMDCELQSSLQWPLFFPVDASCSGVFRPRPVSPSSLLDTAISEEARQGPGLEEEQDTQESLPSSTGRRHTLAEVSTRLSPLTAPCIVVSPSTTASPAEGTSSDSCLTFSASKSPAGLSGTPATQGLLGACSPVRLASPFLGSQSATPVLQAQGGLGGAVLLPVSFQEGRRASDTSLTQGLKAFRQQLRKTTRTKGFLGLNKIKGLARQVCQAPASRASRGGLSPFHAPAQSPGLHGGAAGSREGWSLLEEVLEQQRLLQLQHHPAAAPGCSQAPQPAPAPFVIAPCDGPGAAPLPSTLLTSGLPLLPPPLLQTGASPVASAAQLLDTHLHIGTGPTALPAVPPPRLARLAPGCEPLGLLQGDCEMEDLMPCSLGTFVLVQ
Chain of TRPV1 (Q8NER1 whole entry): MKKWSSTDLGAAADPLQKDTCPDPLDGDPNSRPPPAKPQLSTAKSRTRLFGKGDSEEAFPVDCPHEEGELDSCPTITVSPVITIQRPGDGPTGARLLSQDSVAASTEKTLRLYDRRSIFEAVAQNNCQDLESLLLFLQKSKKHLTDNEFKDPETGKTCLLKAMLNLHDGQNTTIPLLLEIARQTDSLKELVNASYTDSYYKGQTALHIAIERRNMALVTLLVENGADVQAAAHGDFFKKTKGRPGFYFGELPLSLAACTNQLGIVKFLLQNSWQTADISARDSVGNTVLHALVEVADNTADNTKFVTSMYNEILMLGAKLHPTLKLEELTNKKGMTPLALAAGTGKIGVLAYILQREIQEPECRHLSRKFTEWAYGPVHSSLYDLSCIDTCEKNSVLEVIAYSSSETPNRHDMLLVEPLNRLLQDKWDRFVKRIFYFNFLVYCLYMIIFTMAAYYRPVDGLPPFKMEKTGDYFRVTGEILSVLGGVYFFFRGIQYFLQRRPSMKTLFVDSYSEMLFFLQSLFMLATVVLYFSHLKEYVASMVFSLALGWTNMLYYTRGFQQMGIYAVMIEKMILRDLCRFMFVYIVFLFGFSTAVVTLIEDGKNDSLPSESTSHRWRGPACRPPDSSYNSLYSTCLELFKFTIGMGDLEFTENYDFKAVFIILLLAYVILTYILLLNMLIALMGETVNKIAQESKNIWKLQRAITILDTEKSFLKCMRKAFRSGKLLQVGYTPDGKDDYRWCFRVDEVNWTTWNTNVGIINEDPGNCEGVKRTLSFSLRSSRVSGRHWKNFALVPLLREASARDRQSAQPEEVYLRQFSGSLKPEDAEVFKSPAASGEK
Chain of Pim2 (Q9P1W9 whole entry): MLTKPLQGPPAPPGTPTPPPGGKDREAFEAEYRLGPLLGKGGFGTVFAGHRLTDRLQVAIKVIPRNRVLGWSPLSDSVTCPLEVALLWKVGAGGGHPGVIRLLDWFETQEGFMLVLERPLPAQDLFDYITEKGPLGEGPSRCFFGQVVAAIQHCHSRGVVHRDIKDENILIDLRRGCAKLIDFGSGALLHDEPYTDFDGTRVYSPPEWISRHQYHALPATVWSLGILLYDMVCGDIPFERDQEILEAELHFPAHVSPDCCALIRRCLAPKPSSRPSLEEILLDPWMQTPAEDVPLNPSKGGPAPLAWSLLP
Chain of EP2 (P43116 whole entry): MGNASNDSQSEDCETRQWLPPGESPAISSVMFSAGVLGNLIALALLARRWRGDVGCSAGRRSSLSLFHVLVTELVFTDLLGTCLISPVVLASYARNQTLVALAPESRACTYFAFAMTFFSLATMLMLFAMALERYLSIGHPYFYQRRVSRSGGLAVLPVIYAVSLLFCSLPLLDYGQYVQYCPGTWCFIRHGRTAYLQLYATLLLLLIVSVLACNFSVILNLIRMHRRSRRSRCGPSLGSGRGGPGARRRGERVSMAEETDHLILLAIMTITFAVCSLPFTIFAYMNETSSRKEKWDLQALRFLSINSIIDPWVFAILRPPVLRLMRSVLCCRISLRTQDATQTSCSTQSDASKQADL

`CC1(C)CCC2=C(O1)c1ccccc1C(=O)C2=O` [β-Lapachone] gave an inhibition at 150 µM (Pim2; [2]) of 79.6%, an inhibition at 150 µM (Pim2; [3]) of 82.6% and an inhibition at 150 µM (SIK; Flag: Interference, read-out: % Inhibition of control values, 1st measurement) of 41.8%. It also gave an inhibition at 150 µM (SIK; Flag: Interference, read-out: % Inhibition of control values, 2nd measurement) of 40.3%, an inhibition at 150 µM (SIK; n = 2, Flag: Interference, read-out: % Inhibition of control values, Mean) of 41% and an IC50 (EP2) of roughly 100 µM. For the same compound, the inhibition at 150 µM (EphA3; n = 2, read-out: % Inhibition of control values, Mean) was 65.1%, the inhibition at 150 µM (EphA3; [2]) was 66.8% and the inhibition at 150 µM (EphA3; [3]) was 63.3%. The IC50 (EP1) was greater than 100 µM, the “Count rate (kcps)” value ([1]; 25 µM in H2O + 0.1% DMSO) was 60.7 kcps and the “Count rate (kcps)” value ([1]; 50 µM in H2O + 0.1% DMSO) was 47.6 kcps. The “Count rate (kcps)” value ([1]; 100 µM in H2O + 0.1% DMSO) was 136.1 kcps, the “aggregation by dynamic light scattering” value ([1]; at relevant concentrations) was “no aggregation” and the inhibition at 5 µM (15-LO-2; n = 2, read-out: % inhibition of control values, Mean) was -12.9%. It also gave an inhibition at 5 µM (15-LO-2; read-out: % inhibition of control values, 1st measure) of -12%, an inhibition at 5 µM (15-LO-2; read-out: % inhibition of control values, 2nd measure) of -13.8% and a remaining activity at 150 µM (TRPV1; n = 2, read-out: % of control values, Mean) of -4.6%. It also gave a remaining activity at 150 µM (TRPV1; read-out: % of control values, 1st measurement) of -7.3% and a remaining activity at 150 µM (TRPV1; read-out: % of control values, 2nd measurement) of -1.9%.
